From patent US8815796B2, “Polyheterocyclic compounds highly potent as HCV inhibitors” (AB Pharma Ltd., priority 2010, dated 2014)
Where two headings read alike, the source gives them in different places.

Biological target: T1, HCV NS3-4A protease (Hepatitis C virus genotype 1a, UniProt P27958)
T1 construct: HCV NS3-4A protease
Assay: HCV NS3-4A protease assay in vitro (FRET-S substrate)
Assay type: biochemical
Method: HCV NS3-4A Protease Assay In Vitro.
The assay was conducted in Buffer A containing 30 mM NaCl, 5 mM CaCl2, 10 mM DTT, 50 mM Tris (pH7.8), using the Ac-Asp-Glu-Asp(EDANS)-Glu-Glu-Abu-ψ-[COO]-Ala-Ser-Lys (DABCYL)-NH2 (FRET-S) fluorescent peptide (AnaSpec, USA) as substrate. Briefly, 140 μL buffer A, 20 μL compounds dissolved in buffer A with different concentration and 20 μL HCV NS3-4A protease diluted in buffer A were added into 96-well plate respectively and mixed well. The reaction was initiate with adding 20 μL of FRET-S. Reactions were continuously monitored at 37° C. using a BMG Polarstar Galaxy (MTX Lab Systems, Inc. USA), with excitation and emission filters of 355 nm and 520 nm, respectively. The 50% inhibitory concentration (IC50) was calculated with Reed & Muench methods.

[1] = HCV NS3-4A protease inhibition, 37° C., class symbols, read-out: NS3-NS4A IC50

T1 sequence (P27958 1027-1657): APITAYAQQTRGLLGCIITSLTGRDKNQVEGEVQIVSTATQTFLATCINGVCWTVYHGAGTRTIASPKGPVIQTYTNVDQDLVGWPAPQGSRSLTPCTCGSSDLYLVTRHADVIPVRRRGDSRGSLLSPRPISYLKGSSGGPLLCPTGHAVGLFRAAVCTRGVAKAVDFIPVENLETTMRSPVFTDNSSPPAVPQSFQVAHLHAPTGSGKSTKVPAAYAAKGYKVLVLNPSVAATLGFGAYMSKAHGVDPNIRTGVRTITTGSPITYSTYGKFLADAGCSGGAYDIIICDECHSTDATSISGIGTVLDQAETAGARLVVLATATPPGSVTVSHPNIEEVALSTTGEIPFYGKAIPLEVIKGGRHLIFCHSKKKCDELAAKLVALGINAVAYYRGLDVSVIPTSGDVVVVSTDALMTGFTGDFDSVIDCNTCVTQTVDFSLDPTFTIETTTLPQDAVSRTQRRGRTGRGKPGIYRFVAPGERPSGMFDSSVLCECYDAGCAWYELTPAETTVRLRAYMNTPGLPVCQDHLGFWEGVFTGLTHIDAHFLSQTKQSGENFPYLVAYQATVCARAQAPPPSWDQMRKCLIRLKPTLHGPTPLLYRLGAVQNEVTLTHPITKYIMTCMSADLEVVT
T1 sequence (P27958 1658-1711): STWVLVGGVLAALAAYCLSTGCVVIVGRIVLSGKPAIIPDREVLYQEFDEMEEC

Row | IC50 [1] | Compound | IC50
1 | – | CC[C@H]1C[C@@]1(NC(=O)C1C[C@@H](OC(=O)N2Cc3ccc4c(c3C2)OCO4)CN1C(=O)[C@@H](NC(=O)[C@@H](NC(=O)c1cnccn1)C1CCCCC1)C(C)(C)C)C(=O)NS(=O)(=O)C1CC1 (some centres unmarked) [Compound 30f] | < 30 nM
2 | – | C=C[C@H]1C[C@@]1(NC(=O)C1C[C@@H](OC(=O)N2Cc3cc4c(cc3C2)OCCCO4)CN1C(=O)[C@@H](NC(=O)[C@@H](NC(=O)c1cnccn1)C1CCCCC1)C(C)(C)C)C(=O)NS(=O)(=O)C1CC1 (some centres unmarked) [Compound 30g] | < 30 nM
3 | – | CC[C@H]1C[C@@]1(NC(=O)C1C[C@@H](OC(=O)N2Cc3cc4c(cc3C2)OCCCO4)CN1C(=O)[C@@H](NC(=O)[C@@H](NC(=O)c1cnccn1)C1CCCCC1)C(C)(C)C)C(=O)NS(=O)(=O)C1CC1 (some centres unmarked) [Compound 30h] | < 30 nM
4 | – | CC[C@H]1C[C@@]1(NC(=O)C1C[C@@H](OC(=O)N2Cc3ccc4c(c3C2)OCCCO4)CN1C(=O)[C@@H](NC(=O)[C@@H](NC(=O)c1cnccn1)C1CCCCC1)C(C)(C)C)C(=O)NS(=O)(=O)C1CC1 (some centres unmarked) [Compound 30j] | < 30 nM
5 | – | C=C[C@H]1C[C@@]1(NC(=O)C1C[C@@H](OC(=O)N2Cc3cccc(F)c3C2)CN1C(=O)[C@@H](NC(=O)[C@@H](NC(=O)c1cnccn1)C1CCCCC1)C(C)(C)C)C(=O)NS(=O)(=O)C1CC1 (some centres unmarked) [Compound 30k] | < 30 nM
6 | – | CC[C@H]1C[C@@]1(NC(=O)C1C[C@@H](OC(=O)N2Cc3cc4c(cc3C2)OCO4)CN1C(=O)[C@@H](NC(=O)[C@@H](NC(=O)OC(C)(C)C)C1CCCCC1)C(C)(C)C)C(=O)NS(=O)(=O)C1CC1 (some centres unmarked) [Compound 30m] | < 30 nM
7 | < 30 nM | CC[C@H]1C[C@@]1(NC(=O)C1C[C@@H](OC(=O)N2Cc3cc4c(cc3C2)OCO4)CN1C(=O)[C@@H](NC(=O)[C@@H](NS(C)(=O)=O)C1CCCCC1)C(C)(C)C)C(=O)NS(=O)(=O)C1CC1 (some centres unmarked) [Compound 30n] | –
8 | < 30 nM | CC[C@H]1C[C@@]1(NC(=O)C1C[C@@H](OC(=O)N2Cc3cc4c(cc3C2)OCO4)CN1C(=O)[C@@H](NC(=O)[C@@H](NS(=O)(=O)c1cccc2ccccc12)C1CCCCC1)C(C)(C)C)C(=O)NS(=O)(=O)C1CC1 (some centres unmarked) [Compound 30p] | –
9 | < 30 nM | CC[C@H]1C[C@@]1(NC(=O)C1C[C@@H](OC(=O)N2Cc3cc4c(cc3C2)OCO4)CN1C(=O)[C@@H](NC(=O)[C@@H](NS(=O)(=O)c1ccccc1)C1CCCCC1)C(C)(C)C)C(=O)NS(=O)(=O)C1CC1 (some centres unmarked) [Compound 30r] | –
10 | < 30 nM | CC[C@H]1C[C@@]1(NC(=O)C1C[C@@H](OC(=O)N2Cc3cc4c(cc3C2)OCO4)CN1C(=O)[C@@H](NC(=O)[C@@H](NS(=O)(=O)c1ccc2ccccc2c1)C1CCCCC1)C(C)(C)C)C(=O)NS(=O)(=O)C1CC1 (some centres unmarked) [Compound 30s] | –
11 | – | CC[C@H]1C[C@@]1(NC(=O)C1C[C@@H](OC(=O)N2Cc3cc4c(cc3C2)OCO4)CN1C(=O)[C@@H](NC(=O)[C@@H](NC(=O)OC1CCCC1)C1CCCCC1)C(C)(C)C)C(=O)NS(=O)(=O)C1CC1 (some centres unmarked) [Compound 30t] | < 30 nM
12 | – | CCOC(=O)N[C@H](C(=O)N[C@H](C(=O)N1C[C@H](OC(=O)N2Cc3cc4c(cc3C2)OCO4)CC1C(=O)N[C@@]1(C(=O)NS(=O)(=O)C2CC2)C[C@@H]1CC)C(C)(C)C)C1CCCCC1 (some centres unmarked) [Compound 30v] | < 30 nM
13 | – | CC[C@H]1C[C@@]1(NC(=O)C1C[C@@H](OC(=O)N2Cc3cc4c(cc3C2)OCO4)CN1C(=O)[C@@H](NC(=O)[C@@H](NC(=O)OC(C)C)C1CCCCC1)C(C)(C)C)C(=O)NS(=O)(=O)C1CC1 (some centres unmarked) [Compound 30w] | < 30 nM
14 | – | CC[C@H]1C[C@@]1(NC(=O)C1C[C@@H](OC(=O)N2Cc3cc4c(cc3C2)OCO4)CN1C(=O)[C@@H](NC(=O)[C@@H](NC(=O)OC)C1CCCCC1)C(C)(C)C)C(=O)NS(=O)(=O)C1CC1 (some centres unmarked) [Compound 30x] | < 30 nM
15 | – | CC[C@H]1C[C@@]1(NC(=O)C1C[C@@H](OC(=O)N2Cc3cc4c(cc3C2)OCO4)CN1C(=O)[C@@H](NC(=O)[C@@H](NC(=O)OCc1ccccc1)C1CCCCC1)C(C)(C)C)C(=O)NS(=O)(=O)C1CC1 (some centres unmarked) [Compound 30y] | < 30 nM
16 | – | CC[C@H]1C[C@@]1(NC(=O)C1C[C@@H](OC(=O)N2Cc3cc4c(cc3C2)OCO4)CN1C(=O)[C@@H](NC(=O)[C@@H](NC(=O)Oc1ccccc1)C1CCCCC1)C(C)(C)C)C(=O)NS(=O)(=O)C1CC1 (some centres unmarked) [Compound 30z] | < 30 nM
17 | – | CCC[C@H](NC(=O)C1C[C@@H](OC(=O)N2Cc3cc4c(cc3C2)OCO4)CN1C(=O)[C@@H](NC(=O)[C@@H](NC(=O)c1cnccn1)C1CCCCC1)C(C)(C)C)C(=O)C(=O)NC1CC1 (some centres unmarked) [Compound 33a] | 30 to 200 nM
18 | – | CCC[C@H](NC(=O)C1C[C@@H](OC(=O)N2Cc3cc4c(cc3C2)OCCO4)CN1C(=O)[C@@H](NC(=O)[C@@H](NC(=O)c1cnccn1)C1CCCCC1)C(C)(C)C)C(=O)C(=O)NC1CC1 (some centres unmarked) [Compound 33b] | 30 to 200 nM
19 | – | CCC[C@H](NC(=O)C1C[C@@H](OC(=O)N2Cc3ccc4c(c3C2)OCO4)CN1C(=O)[C@@H](NC(=O)[C@@H](NC(=O)c1cnccn1)C1CCCCC1)C(C)(C)C)C(=O)C(=O)NC1CC1 (some centres unmarked) [Compound 33c] | 30 to 200 nM
20 | – | CCC[C@H](NC(=O)C1C[C@@H](OC(=O)N2Cc3ccc4c(c3C2)OCCO4)CN1C(=O)[C@@H](NC(=O)[C@@H](NC(=O)c1cnccn1)C1CCCCC1)C(C)(C)C)C(=O)C(=O)NC1CC1 (some centres unmarked) [Compound 33d] | > 200 nM
